What all share (assay): AK assay 384-well format, Prestwick library screening
One experiment relates to E. faecium. Type of experiment: cell-based, Enterococcus faecium. The settings on record: 50 μM final drug concentration; for fold induction at 50 µM: Enterococcus faecium, 3 h.
The test system of another experiment is K. pneumoniae. The experiment is classed as cell-based, Klebsiella pneumoniae. The settings on record: 50 μM final drug concentration; for fold induction at 50 µM: Klebsiella pneumoniae, 3 h.
Another experiment has as its system P. aeruginosa. The experiment is classed as cell-based, Pseudomonas aeruginosa. Conditions: 50 μM final drug concentration; for fold induction at 50 µM: Pseudomonas aeruginosa, 3 h.
Experiment [1] relates to S. aureus strain USA300-0114. The experiment is classed as cell-based, Staphylococcus aureus. The settings on record: 50 μM final drug concentration; for fold induction at 50 µM: Staphylococcus aureus, USA300, 3 h.
The test system of a further experiment is E. coli. Type of experiment: cell-based, Escherichia coli. Conditions: 50 μM final drug concentration; for fold induction at 50 µM: Escherichia coli, 3 h.
A further experiment relates to E. cloacae. Type of experiment: cell-based, Enterobacter cloacae. The settings on record: 50 μM final drug concentration; for fold induction at 50 µM: Enterobacter cloacae, 3 h.
Experiment [2] deals with A. baumannii strain 98-37-09. The experiment is classed as cell-based, Acinetobacter baumannii. The settings on record: 50 μM final drug concentration; for fold induction at 50 µM: Acinetobacter baumannii, 983709, 3 h.
Setting [3] is: planktonic E. faecium, 384-well, cutoff for positive-scoring molecules 3-fold increase, read-out: AK-based Prestwick Library Screening Results: E. faecium (increase in extracellular AK activity).
[4] abbreviates: planktonic K. pneumoniae, 384-well, cutoff for positive-scoring molecules 3-fold increase, read-out: AK-based Prestwick Library Screening Results: K. pneumoniae (increase in extracellular AK activity).
Where [5] appears, read: planktonic P. aeruginosa, 384-well, cutoff for positive-scoring molecules 3-fold increase, read-out: AK-based Prestwick Library Screening Results: P. aeruginosa (increase in extracellular AK activity).
Where [6] appears, read: planktonic S. aureus, 384-well, cutoff for positive-scoring molecules 3-fold increase, read-out: AK-based Prestwick Library Screening Results: S. aureus (increase in extracellular AK activity).
Where [7] appears, read: planktonic E. coli, 384-well, cutoff for positive-scoring molecules 3-fold increase, read-out: AK-based Prestwick Library Screening Results: E. coli (increase in extracellular AK activity).
Where [8] appears, read: planktonic E. cloacae, 384-well, cutoff for positive-scoring molecules 3-fold increase, read-out: AK-based Prestwick Library Screening Results: E. cloacae (increase in extracellular AK activity).
The mark [9] stands for this setting: planktonic A. baumannii, 384-well, cutoff for positive-scoring molecules 3-fold increase, read-out: AK-based Prestwick Library Screening Results: A. baumannii (increase in extracellular AK activity).
Where [10] appears, read: cutoff for positive-scoring molecules 3-fold increase.
The mark [11] stands for this setting: planktonic, cutoff for positive-scoring molecules 3-fold increase, read-out: AK-based Prestwick Library Screening Results, E. faecium (fold increase in extracellular AK activity).
[12] abbreviates: planktonic, cutoff for positive-scoring molecules 3-fold increase, read-out: AK-based Prestwick Library Screening Results, K. pneumoniae (fold increase in extracellular AK activity).
Setting [13] is: planktonic, cutoff for positive-scoring molecules 3-fold increase, read-out: AK-based Prestwick Library Screening Results, P. aeruginosa (fold increase in extracellular AK activity).
Setting [14] is: planktonic, cutoff for positive-scoring molecules 3-fold increase, read-out: AK-based Prestwick Library Screening Results, S. aureus (fold increase in extracellular AK activity).
The mark [15] stands for this setting: planktonic, cutoff for positive-scoring molecules 3-fold increase, read-out: AK-based Prestwick Library Screening Results, E. coli (fold increase in extracellular AK activity).
The mark [16] stands for this setting: planktonic, cutoff for positive-scoring molecules 3-fold increase, read-out: AK-based Prestwick Library Screening Results, E. cloacae (fold increase in extracellular AK activity).
Setting [17] is: planktonic, cutoff for positive-scoring molecules 3-fold increase, read-out: AK-based Prestwick Library Screening Results, A. baumannii (fold increase in extracellular AK activity).

The structures appear in SMILES notation. Where a name gives a salt, the structure may show the parent alone. Read-outs that look alike come from different tables or passages of the source.

Take `CO[C@@H]1[C@@H](O[C@@H]2O[C@H](C)[C@@H](O[C@H]3C[C@@](C)(O)[C@@H](OC(=O)CC(C)C)[C@H](C)O3)[C@H](N(C)C)[C@H]2O)[C@@H](CC=O)C[C@@H](C)[C@@H](O)/C=C/C=C/C[C@@H](C)OC(=O)C[C@H]1OC(C)=O` [Josamycin]: the fold induction at 50 µM was found to be 1 in the experiment on E. faecium (setting [3]); 1 in the experiment on K. pneumoniae (setting [4]); 0.9 in the experiment with P. aeruginosa (setting [5]); 8.4 in experiment [1] (setting [6]); 1.3 with E. coli (setting [7]); 1.4 with E. cloacae (setting [8]). For the same compound, in experiment [2] (setting [9]), the fold induction at 50 µM was found to be 1.1.

For `CN[C@@H]1[C@H](O[C@H]2[C@H](O[C@H]3[C@H](O)[C@@H](O)[C@H](NC(=N)N)[C@@H](O)[C@@H]3NC(=N)N)O[C@@H](C)[C@]2(O)CO)O[C@@H](CO)[C@H](O)[C@H]1O` [Dihydrostreptomycin sulfate], the fold induction at 50 µM with E. faecium (setting [3]) worked out at 1; in the experiment with K. pneumoniae (setting [4]) it was 0.7; in the experiment with P. aeruginosa (setting [5]) it was 0.9; in experiment [1] (setting [6]), 1.2; in the experiment with E. coli (setting [7]), 1.2; in the experiment on E. cloacae (setting [8]), 1.3. Besides, the fold induction at 50 µM in experiment [2] (setting [9]) amounted to 1.2.

For `C#C[C@]1(O)CC[C@H]2[C@@H]3CCC4=CC(=O)CC[C@@H]4[C@H]3CC[C@@]21CC` [Norgestrel-(−)-D], the “AK-based Prestwick Library Screening Results, E. faecium (fold increase in extracellular AK activity)” value with E. faecium (setting [10]) is 1.0. In addition, the “AK-based Prestwick Library Screening Results, K. pneumoniae (fold increase in extracellular AK activity)” value in the experiment on K. pneumoniae (setting [10]) is listed as 1.1. In addition, in the experiment with P. aeruginosa (setting [10]), the “AK-based Prestwick Library Screening Results, P. aeruginosa (fold increase in extracellular AK activity)” value was determined as 1.1. Further, the “AK-based Prestwick Library Screening Results, S. aureus (fold increase in extracellular AK activity)” value in experiment [1] (setting [10]) is listed as 1.1. Besides, the “AK-based Prestwick Library Screening Results, E. coli (fold increase in extracellular AK activity)” value in the experiment on E. coli (setting [10]) was found to be 1.0. For the same compound, the “AK-based Prestwick Library Screening Results, E. cloacae (fold increase in extracellular AK activity)” value with E. cloacae (setting [10]) is given as 1.7. Besides, in experiment [2] (setting [10]), the “AK-based Prestwick Library Screening Results, A. baumannii (fold increase in extracellular AK activity)” value was 1.1.

As to `CC1(C)O[C@@H]2C[C@H]3[C@@H]4CCC5=CC(=O)CC[C@]5(C)[C@@]4(F)[C@@H](O)C[C@]3(C)[C@]2(C(=O)CCl)O1` [Halcinonide], the fold induction at 50 µM amounted to 0.9 in the experiment with E. faecium (setting [11]); 0.5 in the experiment on K. pneumoniae (setting [12]); 0.7 in the experiment with P. aeruginosa (setting [13]); 0.6 in experiment [1] (setting [14]); 0.6 with E. coli (setting [15]); 0.8 with E. cloacae (setting [16]). For the same compound, the fold induction at 50 µM in experiment [2] (setting [17]) stood at 0.7.

As to `C=C(C)[C@@H]1CC[C@]2(CO)CC[C@]3(C)[C@H](CC[C@@H]4[C@@]5(C)CC[C@H](O)C(C)(C)[C@@H]5CC[C@]43C)[C@@H]12` [Betulin], the fold induction at 50 µM turned out to be 0.9 with E. faecium (planktonic E. faecium, positive cutoff 3-fold increase, read-out: AK-based Prestwick library screening result, E. faecium (fold increase in extracellular AK activity)); 0.7 with K. pneumoniae (planktonic K. pneumoniae, positive cutoff 3-fold increase, read-out: AK-based Prestwick library screening result, K. pneumoniae (fold increase in extracellular AK activity)); 0.7 with P. aeruginosa (planktonic P. aeruginosa, positive cutoff 3-fold increase, read-out: AK-based Prestwick library screening result, P. aeruginosa (fold increase in extracellular AK activity)); 0.3 in experiment [1] (planktonic S. aureus, positive cutoff 3-fold increase, read-out: AK-based Prestwick library screening result, S. aureus (fold increase in extracellular AK activity)); 0.8 in the experiment with E. coli (planktonic E. coli, positive cutoff 3-fold increase, read-out: AK-based Prestwick library screening result, E. coli (fold increase in extracellular AK activity)); 1.3 in the experiment with E. cloacae (planktonic E. cloacae, positive cutoff 3-fold increase, read-out: AK-based Prestwick library screening result, E. cloacae (fold increase in extracellular AK activity)). The fold induction at 50 µM in experiment [2] (planktonic A. baumannii, positive cutoff 3-fold increase, read-out: AK-based Prestwick library screening result, A. baumannii (fold increase in extracellular AK activity)) turned out to be 0.8.

For `O=c1cc(-c2ccccc2)oc2cc(O)cc(O)c12` [Chrysin], the fold induction at 50 µM in the experiment on E. faecium (setting [11]) was found to be 0.3; in the experiment on K. pneumoniae (setting [12]) it was 0.2; in the experiment on P. aeruginosa (setting [13]), 0.1; in experiment [1] (setting [14]), 0.2; with E. coli (setting [15]), 0.2; in the experiment on E. cloacae (setting [16]), 0.6. Also, the fold induction at 50 µM in experiment [2] (setting [17]) came to 0.2.

As to `CN(C)c1nc(N(C)C)nc(N(C)C)n1` [Altretamine], the fold induction at 50 µM with E. faecium (cutoff for positive-scoring molecules 3-fold increase, read-out: AK-based Prestwick Library Screening Results, E. faecium (fold increase in extracellular AK activity)) turned out to be 1; in the experiment with K. pneumoniae (cutoff for positive-scoring molecules 3-fold increase, read-out: AK-based Prestwick Library Screening Results, K. pneumoniae (fold increase in extracellular AK activity)), 1; with P. aeruginosa (cutoff for positive-scoring molecules 3-fold increase, read-out: AK-based Prestwick Library Screening Results, P. aeruginosa (fold increase in extracellular AK activity)), 1.2; in experiment [1] (cutoff for positive-scoring molecules 3-fold increase, read-out: AK-based Prestwick Library Screening Results, S. aureus (fold increase in extracellular AK activity)), 1.1; in the experiment with E. coli (cutoff for positive-scoring molecules 3-fold increase, read-out: AK-based Prestwick Library Screening Results, E. coli (fold increase in extracellular AK activity)), 1.3; with E. cloacae (cutoff for positive-scoring molecules 3-fold increase, read-out: AK-based Prestwick Library Screening Results, E. cloacae (fold increase in extracellular AK activity)), 1.4. In addition, the fold induction at 50 µM in experiment [2] (cutoff for positive-scoring molecules 3-fold increase, read-out: AK-based Prestwick Library Screening Results, A. baumannii (fold increase in extracellular AK activity)) stood at 1.3.

Regarding `CN1CCN(CCCN2c3ccccc3Sc3ccc(Cl)cc32)CC1` [Prochlorperazine dimaleate], the fold induction at 50 µM in the experiment on E. faecium (planktonic, cutoff for positive 3-fold increase, read-out: AK-based Prestwick Library Screening Results, E. faecium (fold increase in extracellular AK activity)) amounted to 1.1; in the experiment on K. pneumoniae (planktonic, cutoff for positive 3-fold increase, read-out: AK-based Prestwick Library Screening Results, K. pneumoniae (fold increase in extracellular AK activity)) it was 1.2; with P. aeruginosa (planktonic, cutoff for positive 3-fold increase, read-out: AK-based Prestwick Library Screening Results, P. aeruginosa (fold increase in extracellular AK activity)), 1.2; in experiment [1] (planktonic, cutoff for positive 3-fold increase, read-out: AK-based Prestwick Library Screening Results, S. aureus (fold increase in extracellular AK activity)), 1.1; with E. coli (planktonic, cutoff for positive 3-fold increase, read-out: AK-based Prestwick Library Screening Results, E. coli (fold increase in extracellular AK activity)) it was 1.2; with E. cloacae (planktonic, cutoff for positive 3-fold increase, read-out: AK-based Prestwick Library Screening Results, E. cloacae (fold increase in extracellular AK activity)), 2. Further, the fold induction at 50 µM in experiment [2] (planktonic, cutoff for positive 3-fold increase, read-out: AK-based Prestwick Library Screening Results, A. baumannii (fold increase in extracellular AK activity)) was 1.6.

Values taken from US10004701B2, “Methods and compositions for treating infection” (UNIVERSITY OF ROCHESTER, priority 2012, dated 2018).
